The results in this text go back to PubChem BioAssay AID1259411 (Chemical Carcinogenesis Research Information System (CCRIS), 2018).

Each structure is given as a SMILES string. Activity calls are given as the source filed them. How the calls were made is not given here.

The subject of this series is rodent carcinogenicity bioassays, tumor incidence. Briefly: CCRIS carcinogenicity studies. Summed up: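 NCI-built, expert-reviewed records of carcinogenicity and related test outcomes (mutagenicity, tumor promotion/inhibition) compiled from published and report sources, historical span 1985-2011, not updated.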

For `Cc1cc2ccccc2c2ccc3c(c12)C=C[C@@H](O)[C@@H]3O`, the carcinogen call by setting is: (Species: MOUSE, Strain/Sex: ICR/FEMALE, Route: INTRAPERITONEAL, Dose: 8 NMOL/5 µL DMSO ON DAY 1, 16 NMOL/10 µL ON DAY 8, AND 32 NMOL/20 µL ON DAY 15 OF AGE (STUDY DURATION: 35 WK), Tumor Site: Type of Lesion: LUNG: TUMORS) “active; positive”; (Species: MOUSE, Strain/Sex: ICR/MALE, Route: INTRAPERITONEAL, Dose: 8 NMOL/5 µL DMSO ON DAY 1, 16 NMOL/10 µL ON DAY 8, AND 32 NMOL/20 µL ON DAY 15 OF AGE (STUDY DURATION: 35 WK), Tumor Site: Type of Lesion: LUNG: TUMORS, LIVER: TUMORS) “active; positive”.

Turning to `CCCCC(CC)COC(=O)c1ccccc1C(=O)OCC(CC)CCCC` (stereo not drawn), the carcinogen call was “active; positive” (Species: MOUSE, Strain/Sex: B6C3F1/FEMALE, Route: ORAL, Dose: 0, 3000, 6000 PPM IN DIET FOR 102-104 WK (STUDY DURATION: 102-104 WK), Dose: 0, 3000, 6000 PPM IN DIET FOR 102-104 WK (STUDY DURATION: 102-104 WK), Tumor Site: Type of Lesion: LIVER: CARCINOMA, CARCINOMA OR ADENOMA); “active; positive” (Species: MOUSE, Strain/Sex: B6C3F1/FEMALE, Route: ORAL, Dose: 0, 3000, 6000 PPM IN DIET FOR 103 WK (STUDY DURATION: 105 WK), Dose: 0, 3000, 6000 PPM IN DIET FOR 103 WK (STUDY DURATION: 105 WK), Tumor Site: Type of Lesion: LIVER: HEPATOCELLULAR CARCINOMA); “active; positive” (Species: MOUSE, Strain/Sex: B6C3F1/MALE, Route: ORAL, Dose: 0, 3000, 6000 PPM IN DIET FOR 102-104 WK (STUDY DURATION: 102-104 WK), Dose: 0, 3000, 6000 PPM IN DIET FOR 102-104 WK (STUDY DURATION: 102-104 WK), Tumor Site: Type of Lesion: LIVER: CARCINOMA, CARCINOMA OR ADENOMA); “active; positive” (Species: MOUSE, Strain/Sex: B6C3F1/MALE, Route: ORAL, Dose: 0, 3000, 6000 PPM IN DIET FOR 103 WK (STUDY DURATION: 104-105 WK), Dose: 0, 3000, 6000 PPM IN DIET FOR 103 WK (STUDY DURATION: 104-105 WK), Tumor Site: Type of Lesion: LIVER: HEPATOCELLULAR CARCINOMA); “active; positive” (Species: RAT, Strain/Sex: F344/FEMALE, Route: ORAL, Dose: 0, 6000, 12000 PPM IN DIET FOR 102-104 WK (STUDY DURATION: 102-104 WK), Dose: 0, 6000, 12000 PPM IN DIET FOR 102-104 WK (STUDY DURATION: 102-104 WK), Tumor Site: Type of Lesion: LIVER: CARCINOMA, CARCINOMA OR ADENOMA); “active; positive” (Species: RAT, Strain/Sex: F344/FEMALE, Route: ORAL, Dose: 0, 6000, 12000 PPM IN DIET FOR 103 WK (STUDY DURATION: 105 WK), Dose: 0, 6000, 12000 PPM IN DIET FOR 103 WK (STUDY DURATION: 105 WK), Tumor Site: Type of Lesion: LIVER: HEPATOCELLULAR CARCINOMA, NEOPLASTIC NODULE). In addition, the carcinogen call reads like this: (Species: RAT, Strain/Sex: F344/MALE, Route: ORAL, Dose: 0, 2% IN DIET FOR 78 WK (STUDY DURATION: 78 WK), Tumor Site: Type of Lesion: LIVER: NEOPLASM) “active; positive”; (Species: RAT, Strain/Sex: F344/MALE, Route: ORAL, Dose: 0, 2% IN DIET FOR 108 WK (STUDY DURATION: 108 WK), Tumor Site: Type of Lesion: LIVER: NEOPLASTIC NODULE OR HEPATOCELLULAR CARCINOMA) “active; positive”; (Species: RAT, Strain/Sex: F344/MALE, Route: ORAL, Dose: 0, 6000, 12000 PPM IN DIET FOR 102-104 WK (STUDY DURATION: 102-104 WK), Dose: 0, 6000, 12000 PPM IN DIET FOR 102-104 WK (STUDY DURATION: 102-104 WK), Tumor Site: Type of Lesion: LIVER: CARCINOMA, CARCINOMA OR ADENOMA) “active; positive”; (Species: RAT, Strain/Sex: F344/MALE, Route: ORAL, Dose: 0, 6000, 12000 PPM IN DIET FOR 103 WK (STUDY DURATION: 104-105 WK), Dose: 0, 6000, 12000 PPM IN DIET FOR 103 WK (STUDY DURATION: 104-105 WK), Tumor Site: Type of Lesion: LIVER: HEPATOCELLULAR CARCINOMA OR NEOPLASTIC NODULE) “active; positive”; (Species: RAT, Strain/Sex: SPRAGUE-DAWLEY/MALE (31-167/GROUP), Route: ORAL, Dose: 0, 30, 95, 300 MG/KG/D IN DIET UP TO 159 WK (STUDY DURATION: LIFE TIME), Dose: 0, 30, 95, 300 MG/KG/D IN DIET UP TO 159 WK (STUDY DURATION: LIFE TIME), Tumor Site: Type of Lesion: TESTIS: LEYDIG CELL TUMORS) “active; positive”; (Species: RAT, Strain/Sex: SPRAGUE-DAWLEY/MALE (31-167/GROUP), Route: ORAL, Dose: 0, 30, 95, 300 MG/KG/D IN DIET UP TO 159 WK (STUDY DURATION: LIFETIME), Dose: 0, 30, 95, 300 MG/KG/D IN DIET UP TO 159 WK (STUDY DURATION: LIFETIME), Tumor Site: Type of Lesion: LIVER: CHOLANGIOCELLULAR TUMORS, TESTIS: LEYDIG CELL TUMORS (SIGNIFICANT DOSE RELATED TREND, INCIDENCE COMPARED TO CONTR, Tumor Site: Type of Lesion: LIVER: CHOLANGIOCELLULAR TUMORS, TESTIS: LEYDIG CELL TUMORS (SIGNIFICANT DOSE RELATED TREND, INCIDENCE COMPARED TO CONTR) “active; positive”.

In the case of `Nc1ccc(N=Nc2ccccc2)c(N)c1`, the carcinogen call (Species: MOUSE, Route: ORAL, Tumor Site: Type of Lesion: HEMATOPOIETIC SYSTEM (LEUKEMIA), LYMPHATIC SYSTEM: LYMPHOMA, LIVER, Tumor Site: Type of Lesion: HEMATOPOIETIC SYSTEM (LEUKEMIA), LYMPHATIC SYSTEM: LYMPHOMA, LIVER) was “active; positive”.

For the molecule `C/C=C/C=C/C=O`, the carcinogen call was “active; positive” (Species: MOUSE, Strain/Sex: B6C3F1/FEMALE, Route: GAVAGE, Dose: 0, 30, 60, 120 MG/KG IN CORN OIL 5 D/WK FOR DURATION OF STUDY (STUDY DURATION: 105 WK), Dose: 0, 30, 60, 120 MG/KG IN CORN OIL 5 D/WK FOR DURATION OF STUDY (STUDY DURATION: 105 WK), Tumor Site: Type of Lesion: FORESTOMACH: SQUAMOUS CELL PAPILLOMA, SQUAMOUS CELL CARCINOMA, SQUAMOUS CELL PAPILLOMA OR CARCINOMA); “active; positive” (Species: MOUSE, Strain/Sex: B6C3F1/MALE, Route: GAVAGE, Dose: 0, 30, 60, 120 MG/KG IN CORN OIL 5 D/WK FOR DURATION OF STUDY (STUDY DURATION: 105 WK), Dose: 0, 30, 60, 120 MG/KG IN CORN OIL 5 D/WK FOR DURATION OF STUDY (STUDY DURATION: 105 WK), Tumor Site: Type of Lesion: FORESTOMACH: SQUAMOUS CELL PAPILLOMA, SQUAMOUS CELL CARCINOMA, SQUAMOUS CELL PAPILLOMA OR CARCINOMA); “active; positive” (Species: RAT, Strain/Sex: F344/FEMALE, Route: GAVAGE, Dose: 0, 22.5, 45, 90 MG/KG IN CORN OIL 5 D/WK FOR DURATION OF STUDY (STUDY DURATION: 105 WK), Dose: 0, 22.5, 45, 90 MG/KG IN CORN OIL 5 D/WK FOR DURATION OF STUDY (STUDY DURATION: 105 WK), Tumor Site: Type of Lesion: FORESTOMACH: SQUAMOUS CELL PAPILLOMA); “active; positive” (Species: RAT, Strain/Sex: F344/MALE, Route: GAVAGE, Dose: 0, 22.5, 45, 90 MG/KG IN CORN OIL 5 D/WK FOR DURATION OF STUDY (STUDY DURATION: 105 WK), Dose: 0, 22.5, 45, 90 MG/KG IN CORN OIL 5 D/WK FOR DURATION OF STUDY (STUDY DURATION: 105 WK), Tumor Site: Type of Lesion: FORESTOMACH: SQUAMOUS CELL PAPILLOMA, SQUAMOUS CELL CARCINOMA, SQUAMOUS CELL PAPILLOMA OR CARCINOMA).

As to `NC(=S)Nc1ccccc1`, the carcinogen call is “inactive; negative” (Species: MOUSE, Strain/Sex: B6C3F1/FEMALE, Route: ORAL, Dose: 0, 150, 300 PPM IN DIET, Dose: 0, 150, 300 PPM IN DIET); “inactive; negative” (Species: MOUSE, Strain/Sex: B6C3F1/MALE, Route: ORAL, Dose: 0, 150, 300 PPM IN DIET, Dose: 0, 150, 300 PPM IN DIET); “inactive; negative” (Species: RAT, Strain/Sex: F344/FEMALE, Route: ORAL, Dose: 0, 60, 120 PPM IN DIET, Dose: 0, 60, 120 PPM IN DIET); “inactive; negative” (Species: RAT, Strain/Sex: F344/MALE, Route: ORAL, Dose: 0, 60, 120 PPM IN DIET, Dose: 0, 60, 120 PPM IN DIET).
